#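 Where inhibition never reached the appropriate level, the endpoint shown equals the highest concentration tested. Otherwise, values were interpolated linearly from a five-concentration, 48-hour dose response in 96-well plates. GI50 = concentration required for 50% inhibition of growth. Definition used: TGI = concentration required for complete inhibition of growth.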
# Legend:
# Assay in all cases: NCI-60 cell line screen, 48 h
# [1] = test system: 786-0 renal
# [2] = test system: A549 NSCLC
# [3] = test system: ACHN renal
# [4] = test system: BT-549 breast
# [5] = test system: CAKI-1 renal
# [6] = test system: CCRF-CEM leukemia
# [7] = test system: COLO 205 colon
# [8] = test system: DU-145 prostate
# [9] = test system: EKVX NSCLC
# [10] = test system: HCC-2998 colon
# [11] = test system: HCT-116 colon
# [12] = test system: HCT-15 colon
# [13] = test system: HL-60(TB) leukemia
# [14] = test system: HOP-62 NSCLC
# [15] = test system: HOP-92 NSCLC
# [16] = test system: HT29 colon
# [17] = test system: IGROV1 ovarian
# [18] = test system: K-562 leukemia
# [19] = test system: KM12 colon
# [20] = test system: LOX IMVI melanoma
# [21] = test system: M14 melanoma
# [22] = test system: MALME-3M melanoma
# [23] = test system: MCF7 breast
# [24] = test system: MDA-MB-231 breast
# [25] = test system: NCI-H226 lung
# [26] = test system: NCI-H23 lung
# [27] = test system: NCI-H460 lung
# [28] = test system: NCI-H522 lung
# [29] = test system: NCI/ADR-RES ovarian
# [30] = test system: OVCAR-4 ovarian
# [31] = test system: OVCAR-5 ovarian
# [32] = test system: OVCAR-8 ovarian
# [33] = test system: PC-3 prostate
# [34] = test system: RPMI-8226 leukemia
# [35] = test system: SF-268 CNS
# [36] = test system: SF-295 CNS
# [37] = test system: SF-539 CNS
# [38] = test system: SK-MEL-2 melanoma
# [39] = test system: SK-MEL-28 melanoma
# [40] = test system: SK-MEL-5 melanoma
# [41] = test system: SN12C renal
# [42] = test system: SNB-19 CNS
# [43] = test system: SNB-75 CNS
# [44] = test system: SR leukemia
# [45] = test system: SW-620 colon
# [46] = test system: TK-10 renal
# [47] = test system: U251 CNS
# [48] = test system: UACC-257 melanoma
# [49] = test system: HS 578T breast
# [50] = test system: MDA-MB-435
# [51] = test system: MOLT-4 leukemia
# [52] = test system: OVCAR-3 ovarian
# [53] = test system: RXF 393 renal
# [54] = test system: SK-OV-3 ovarian
# [55] = test system: T-47D breast
# [56] = test system: UACC-62 melanoma
# [57] = test system: UO-31 renal
# [58] = test system: A498 renal
compound,measurement,setting,value
CC1CCC(C(C)C)C(OC(=O)NCn2cc(-c3ccccc3)nn2)C1 (stereo not drawn),TGI,[1],> 100 µM
same,TGI,[2],> 100 µM
same,TGI,[3],> 100 µM
same,TGI,[4],> 100 µM
same,TGI,[5],> 100 µM
same,TGI,[6],> 100 µM
same,TGI,[7],> 100 µM
same,TGI,[8],> 100 µM
same,TGI,[9],> 100 µM
same,TGI,[10],> 100 µM
same,TGI,[11],> 100 µM
same,TGI,[12],> 100 µM
same,TGI,[13],> 100 µM
same,TGI,[14],> 100 µM
same,TGI,[15],> 100 µM
same,TGI,[16],> 100 µM
same,TGI,[17],> 100 µM
same,TGI,[18],> 100 µM
same,TGI,[19],> 100 µM
same,TGI,[20],> 100 µM
same,TGI,[21],> 100 µM
same,TGI,[22],> 100 µM
same,TGI,[23],> 100 µM
same,TGI,[24],> 100 µM
same,TGI,[25],> 100 µM
same,TGI,[26],> 100 µM
same,TGI,[27],> 100 µM
same,TGI,[28],> 100 µM
same,TGI,[29],> 100 µM
same,TGI,[30],> 100 µM
same,TGI,[31],> 100 µM
same,TGI,[32],> 100 µM
same,TGI,[33],> 100 µM
same,TGI,[34],> 100 µM
same,TGI,[35],> 100 µM
same,TGI,[36],> 100 µM
same,TGI,[37],> 100 µM
same,TGI,[38],> 100 µM
same,TGI,[39],> 100 µM
same,TGI,[40],> 100 µM
same,TGI,[41],> 100 µM
same,TGI,[42],> 100 µM
same,TGI,[43],86 µM
same,TGI,[44],> 100 µM
same,TGI,[45],> 100 µM
same,TGI,[46],> 100 µM
same,TGI,[47],> 100 µM
same,TGI,[48],> 100 µM
COc1cc(-n2cc(-c3ccc(F)cc3)[nH]c2=O)cc(OC)c1OC,GI50,[1],> 100 µM
same,TGI,[1],> 100 µM
same,GI50,[2],> 100 µM
same,TGI,[2],> 100 µM
same,GI50,[3],> 100 µM
same,TGI,[3],> 100 µM
same,GI50,[4],83.4 µM
same,TGI,[4],> 100 µM
same,GI50,[5],> 100 µM
same,TGI,[5],> 100 µM
same,GI50,[7],> 100 µM
same,TGI,[7],> 100 µM
same,GI50,[8],> 100 µM
same,TGI,[8],> 100 µM
same,GI50,[9],> 100 µM
same,TGI,[9],> 100 µM
same,GI50,[10],> 100 µM
same,TGI,[10],> 100 µM
same,GI50,[11],> 100 µM
same,TGI,[11],> 100 µM
same,GI50,[12],> 100 µM
same,TGI,[12],> 100 µM
same,GI50,[13],> 100 µM
same,TGI,[13],> 100 µM
same,GI50,[14],> 100 µM
same,TGI,[14],> 100 µM
same,GI50,[15],> 100 µM
same,TGI,[15],> 100 µM
same,GI50,[49],69.3 µM
same,TGI,[49],> 100 µM
same,GI50,[16],> 100 µM
same,TGI,[16],> 100 µM
same,GI50,[17],> 100 µM
same,TGI,[17],> 100 µM
same,GI50,[18],> 100 µM
same,TGI,[18],> 100 µM
same,GI50,[19],> 100 µM
same,TGI,[19],> 100 µM
same,GI50,[20],> 100 µM
same,TGI,[20],> 100 µM
same,GI50,[22],> 100 µM
same,TGI,[22],> 100 µM
same,GI50,[23],> 100 µM
same,TGI,[23],> 100 µM
same,GI50,[24],49.5 µM
same,TGI,[24],> 100 µM
same,GI50,[50],> 100 µM
same,TGI,[50],> 100 µM
same,GI50,[51],> 100 µM
same,TGI,[51],> 100 µM
same,GI50,[25],> 100 µM
same,TGI,[25],> 100 µM
same,GI50,[26],> 100 µM
same,TGI,[26],> 100 µM
same,GI50,[27],> 100 µM
same,TGI,[27],> 100 µM
same,GI50,[28],> 100 µM
same,TGI,[28],> 100 µM
same,GI50,[29],> 100 µM
same,TGI,[29],> 100 µM
same,GI50,[52],> 100 µM
same,TGI,[52],> 100 µM
same,GI50,[30],> 100 µM
same,TGI,[30],> 100 µM
same,GI50,[31],> 100 µM
same,TGI,[31],> 100 µM
same,GI50,[32],> 100 µM
same,TGI,[32],> 100 µM
same,GI50,[33],> 100 µM
same,TGI,[33],> 100 µM
same,GI50,[34],> 100 µM
same,TGI,[34],> 100 µM
same,GI50,[53],> 100 µM
same,TGI,[53],> 100 µM
same,GI50,[35],> 100 µM
same,TGI,[35],> 100 µM
same,GI50,[36],> 100 µM
same,TGI,[36],> 100 µM
same,GI50,[37],> 100 µM
same,TGI,[37],> 100 µM
same,GI50,[38],> 100 µM
same,TGI,[38],> 100 µM
same,GI50,[39],> 100 µM
same,TGI,[39],> 100 µM
same,GI50,[40],> 100 µM
same,TGI,[40],> 100 µM
same,GI50,[54],> 100 µM
same,TGI,[54],> 100 µM
same,GI50,[41],> 100 µM
same,TGI,[41],> 100 µM
same,GI50,[42],> 100 µM
same,TGI,[42],> 100 µM
same,GI50,[43],31.5 µM
same,TGI,[43],86.3 µM
same,GI50,[45],> 100 µM
same,TGI,[45],> 100 µM
same,GI50,[55],> 100 µM
same,TGI,[55],> 100 µM
same,GI50,[46],> 100 µM
same,TGI,[46],> 100 µM
same,GI50,[47],71.6 µM
same,TGI,[47],> 100 µM
same,GI50,[48],> 100 µM
same,TGI,[48],> 100 µM
same,GI50,[56],> 100 µM
same,TGI,[56],> 100 µM
same,GI50,[57],> 100 µM
same,TGI,[57],> 100 µM
Oc1cc2cccc[n+]2c2cc(Cl)ccc12,GI50,[58],18.2 µM
same,TGI,[58],32.4 µM
same,GI50,[4],78 µM
same,GI50,[5],65.9 µM
same,GI50,[6],35.9 µM
same,GI50,[7],56.9 µM
same,GI50,[10],83.3 µM
same,GI50,[11],60.3 µM
same,GI50,[15],5.06 µM
same,TGI,[15],9.88 µM
same,GI50,[49],84.5 µM
same,GI50,[16],71 µM
same,GI50,[24],29.2 µM
same,GI50,[50],14.9 µM
same,TGI,[50],28.1 µM
same,GI50,[51],57.3 µM
same,GI50,[25],81 µM
same,GI50,[28],86.3 µM
same,GI50,[32],92.3 µM
same,GI50,[34],57 µM
same,GI50,[35],56.3 µM
same,GI50,[41],45.2 µM
same,GI50,[43],91.5 µM
same,GI50,[44],48.4 µM
same,GI50,[57],57.9 µM
C=CCn1c(C)nc2ccc(Nc3nc(Nc4ccc5nc(C)n(CC=C)c5c4)c4ccccc4n3)cc21,GI50,[3],1.64 µM
same,TGI,[3],3.01 µM
same,GI50,[8],1.85 µM
same,TGI,[8],3.27 µM
same,GI50,[10],1.72 µM
same,TGI,[10],3.09 µM
same,GI50,[24],1.34 µM
same,TGI,[24],2.62 µM
same,GI50,[29],2.22 µM
same,TGI,[29],6.07 µM
same,GI50,[31],1.7 µM
same,TGI,[31],3.09 µM
same,GI50,[37],1.71 µM
same,TGI,[37],3.12 µM
same,GI50,[54],1.72 µM
same,TGI,[54],3.09 µM
same,GI50,[41],1.62 µM
same,TGI,[41],2.98 µM
same,GI50,[44],1.52 µM
same,TGI,[44],3.98 µM
same,GI50,[56],1.55 µM
same,TGI,[56],2.89 µM
